Experimental data from patent US12195427B2, “MASP-2 inhibitors and methods of use” (priority 2018, dated 2025).

Assays:
human α-thrombin = human α-thrombin (Homo sapiens (Human), UniProt P00734); assay: Enzymatic Assay for Thrombin (Boc-VPR-AMC); assay type: biochemical
MASP-2 CCP2-SP = MASP-2 CCP2-SP (Homo sapiens (Human), UniProt O00187); assay: MASP-2 co-crystallization, X-ray crystallography and structure analysis (H-bonds, van der Waals contacts); design: van der Waals contact distance, MASP-2 HIS 483 atom CD2 / van der Waals contact distance, MASP-2 HIS 483 atom NE2 / van der Waals contact distance, SER 654 C to compound atom / van der Waals contact distance, SER 654 O to compound atom / van der Waals contact distance, TRP 655 C to compound atom / van der Waals contact distance, MASP-2 GLY 528 atom CA / van der Waals contact distance TRP 655 atom CZ3 / van der Waals contact distance TRP 655 atom N / van der Waals contact distance TRP 655 atom CE3 / van der Waals contact distance GLY 656 atom C / van der Waals contact distance GLY 656 atom CA / van der Waals contact distance GLY 656 atom O / van der Waals contact distance, MASP-2 TYR 607 atom CD1 / van der Waals contact distance, MASP-2 PRO 606 atom O / d(C3,CA1) / d(CA1,N1)2 / d(H4,O1) / d(H4,O2) / d(O1,O2) / d(CA1,O2) / d(CA6,O1) / d(CA6,O2) / d(CA1,C5) / d(O2,H3) / d(N2,C2) / d(CA5,N2) / d(N2,C4) / d(N2,C6) / d(N2,CA3) / d(N2,O3) / d(O4,H2): unit not given beside the values; conditions: for H-bond distance to MASP-2 GLY 656 atom N: GLY 656 N; for H-bond distance to MASP-2 SER 628 atom O: SER 628 O; for H-bond distance to MASP-2 SER 654 atom O: SER 654 O; for H-bond distance to MASP-2 SER 657 atom O: SER 657 O; for van der Waals contact distance GLY 656 atom C: MASP-2 GLY 656 C; for van der Waals contact distance SER 657 atom C: Table A2-14, MASP-2 SER 657 C, columns c12-c13 (inferred);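 on Ligand-pharmacophore element distance, pharmacophore element C2: distance from averaged pharmacophore element to bound ligand; missing value means element absent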;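 on Ligand-pharmacophore element distance, pharmacophore element C3: distance from averaged pharmacophore element to bound ligand; missing value means element absent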;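 on Ligand-pharmacophore element distance, pharmacophore element C4: distance from averaged pharmacophore element to bound ligand; missing value means element absent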;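 on Ligand-pharmacophore element distance, pharmacophore element C5: distance from averaged pharmacophore element to bound ligand; missing value means element absent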
Outline: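 Human MASP-2 CCP2-SP, untagged or 6His-tagged, was expressed in E. coli and crystallized. Crystals were soaked with inhibitor in crystallization solution, flash-cooled in liquid nitrogen, and diffracted with synchrotron X-rays (wavelength 1.0). Structures were solved by molecular replacement from 1Q3X and partially refined.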

MASP-2 (CCP1-CCP2-SP) = MASP-2 (CCP1-CCP2-SP) (Homo sapiens (Human), UniProt O00187); assay: Enzymatic Assay for MASP-2 (fluorogenic substrate); assay type: biochemical
[1] = Table A5-1 pharmacophore: distance between elements, S2/S1 region
[2] = Table A5-2 pharmacophore distance, S3/S4 region
[3] = Table A7-1, between pharmacophore elements of the bound compound
[4] = Table A8-6, nearest protein atom in cell to the left

Chain of MASP-2 CCP2-SP (O00187 445-686): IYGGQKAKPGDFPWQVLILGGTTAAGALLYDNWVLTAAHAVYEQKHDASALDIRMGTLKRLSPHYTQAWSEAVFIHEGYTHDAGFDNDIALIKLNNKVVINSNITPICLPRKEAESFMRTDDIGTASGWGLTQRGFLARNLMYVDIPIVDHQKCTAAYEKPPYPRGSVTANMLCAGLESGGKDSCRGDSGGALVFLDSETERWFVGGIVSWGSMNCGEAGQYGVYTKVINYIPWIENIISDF
Chain of MASP-2 CCP2-SP (O00187 364-432 partner): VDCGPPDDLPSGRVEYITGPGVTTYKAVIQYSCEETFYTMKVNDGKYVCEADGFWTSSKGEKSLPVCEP
Chain of MASP-2 (CCP1-CCP2-SP) (O00187 445-686): as the sequence (O00187 445-686) above

Which results are given for `C[C@H](NC(=O)[C@H]1Cc2c([nH]c3ccccc23)CN1)C(=O)NCc1ccc(C(=N)N)cc1` [compound 1097]?
Ki (human α-thrombin): < 500 nM; H-bond distance to MASP-2 ASP 627 atom OD2 (MASP-2 CCP2-SP; Table A1 (H-Bonds), ASP 627 OD2): 2.74; H-bond distance to MASP-2 GLY 656 atom N (MASP-2 CCP2-SP; Table A1 (H-Bonds)): 3.12; H-bond distance to MASP-2 GLY 656 atom O (MASP-2 CCP2-SP; Table A1 (H-Bonds), GLY 656 O): 2.98; H-bond distance to MASP-2 SER 628 atom O (MASP-2 CCP2-SP; Table A1 (H-Bonds)): 3.03; H-bond distance to MASP-2 SER 654 atom O (MASP-2 CCP2-SP; Table A1 (H-Bonds)): 2.81; H-bond distance to MASP-2 SER 657 atom O (MASP-2 CCP2-SP; Table A1 (H-Bonds)): 2.74; van der Waals contact distance, MASP-2 HIS 483 atom CD2 (MASP-2 CCP2-SP; Table A2-1): 3.63; van der Waals contact distance, MASP-2 HIS 483 atom NE2 (MASP-2 CCP2-SP; Table A2-1): 3.53; van der Waals contact distance, MASP-2 PRO 606 atom C (MASP-2 CCP2-SP; Table A2-4): 3.74; van der Waals contact distance, MASP-2 PRO 606 atom CB (MASP-2 CCP2-SP; Table A2-4): 3.84; van der Waals contact distance, MASP-2 PRO 606 atom CG (MASP-2 CCP2-SP; Table A2-4): 3.82; van der Waals contact distance, MASP-2 PRO 606 atom O (MASP-2 CCP2-SP; Table A2-4): 3.33; van der Waals contact distance, MASP-2 TYR 607 atom CA (MASP-2 CCP2-SP; Table A2-4): 3.79; van der Waals contact distance, MASP-2 amino acid atom to compound atom (MASP-2 CCP2-SP; Table A2-9 second part, ARG 630, AA atoms N, NE, NH1): 3.71; van der Waals contact distance, SER 654 C to compound atom (MASP-2 CCP2-SP; Table A2-11): 3.73; van der Waals contact distance GLY 656 atom C (MASP-2 CCP2-SP; Table A2-13): 3.46; van der Waals contact distance SER 657 atom C (MASP-2 CCP2-SP): 3.52; Ki (MASP-2 (CCP1-CCP2-SP)): < 500 nM

Which results are given for `C[C@H](NC(=O)[C@H](N)CCc1ccccc1)C(=O)NCc1ccc(C(=N)N)cc1` [compound 1024]?
Ki (human α-thrombin): < 500 nM; H-bond distance to MASP-2 ASP 627 atom OD1 (MASP-2 CCP2-SP; Table A1 (H-Bonds), ASP 627 OD1): 2.74; H-bond distance to MASP-2 GLY 656 atom N (MASP-2 CCP2-SP; Table A1 (H-Bonds)): 3.06; H-bond distance to MASP-2 SER 628 atom O (MASP-2 CCP2-SP; Table A1 (H-Bonds)): 2.79; H-bond distance to MASP-2 SER 654 atom O (MASP-2 CCP2-SP; Table A1 (H-Bonds)): 2.86; H-bond distance to MASP-2 SER 657 atom O (MASP-2 CCP2-SP; Table A1 (H-Bonds)): 2.94; van der Waals contact distance, MASP-2 HIS 483 atom CD2 (MASP-2 CCP2-SP; Table A2-1): 3.39; van der Waals contact distance, MASP-2 TYR 607 atom CD1 (MASP-2 CCP2-SP; Table A2-4): 3.9; van der Waals contact distance, MASP-2 amino acid atom to compound atom (MASP-2 CCP2-SP; Table A2-7 continued: CYS 629 (CA)): 3.75; van der Waals contact distance GLY 656 atom C (MASP-2 CCP2-SP; Table A2-13): 3.53; van der Waals contact distance TRP 655 atom CZ3 (MASP-2 CCP2-SP; Table A2-13, MASP-2 TRP 655 CZ3): 3.86; van der Waals contact distance TRP 655 atom N (MASP-2 CCP2-SP; Table A2-13, MASP-2 TRP 655 N): 3.78; van der Waals contact distance TRP 655 atom O (MASP-2 CCP2-SP; Table A2-13, MASP-2 TRP 655 O): 3.59; van der Waals contact distance SER 657 atom C (MASP-2 CCP2-SP): 3.77; Ligand-pharmacophore element distance, pharmacophore element C2 (MASP-2 CCP2-SP; Table A4-1, element C2): 0; Ligand-pharmacophore element distance, pharmacophore element C3 (MASP-2 CCP2-SP; Table A4-1, element C3): 0; Ligand-pharmacophore element distance, pharmacophore element C4 (MASP-2 CCP2-SP; Table A4-1, element C4): 0; Ligand-pharmacophore element distance, pharmacophore element C5 (MASP-2 CCP2-SP; Table A4-1, element C5): 0; Ligand-pharmacophore element distance, pharmacophore element C6 (MASP-2 CCP2-SP; Table A4-1, element C6): 0; Ligand-pharmacophore element distance, pharmacophore element C7 (MASP-2 CCP2-SP; Table A4-1, element C7): 0; Ligand-pharmacophore element distance, pharmacophore element CA1 (MASP-2 CCP2-SP; Table A4-1, element CA1): 0.4; Ligand-pharmacophore element distance, pharmacophore element CA2 (MASP-2 CCP2-SP; Table A4-1, element CA2): 0.33; Ligand-pharmacophore element distance, pharmacophore element CA3 (MASP-2 CCP2-SP; Table A4-1, element CA3): 0; Ligand-pharmacophore element distance, pharmacophore element CA4 (MASP-2 CCP2-SP; Table A4-1, element CA4): 0; Ligand-pharmacophore element distance, pharmacophore element CA5 (MASP-2 CCP2-SP; Table A4-1, element CA5): 0; Ligand-pharmacophore element distance, pharmacophore element CA6 (MASP-2 CCP2-SP; Table A4-1, element CA6): 0; Ligand-pharmacophore element distance, pharmacophore element H1 (MASP-2 CCP2-SP; Table A4-2, element H1): 0; Ligand-pharmacophore element distance, pharmacophore element H2 (MASP-2 CCP2-SP; Table A4-2, element H2): 0; Ligand-pharmacophore element distance, pharmacophore element H3 (MASP-2 CCP2-SP; Table A4-2, element H3): 4.93; Ligand-pharmacophore element distance, pharmacophore element H4 (MASP-2 CCP2-SP; Table A4-2, element H4): 3.21; Ligand-pharmacophore element distance, pharmacophore element N1 (MASP-2 CCP2-SP; Table A4-2, element N1): 1.74; Ligand-pharmacophore element distance, pharmacophore element N2 (MASP-2 CCP2-SP; Table A4-2, element N2): 0.59; Ligand-pharmacophore element distance, pharmacophore element O1 (MASP-2 CCP2-SP; Table A4-2, element O1): 0.4; Ligand-pharmacophore element distance, pharmacophore element O2 (MASP-2 CCP2-SP; Table A4-2, element O2): 0.4; Ligand-pharmacophore element distance, pharmacophore element O3 (MASP-2 CCP2-SP; Table A4-2, element O3): 0; Ligand-pharmacophore element distance, pharmacophore element O4 (MASP-2 CCP2-SP; Table A4-2, element O4): 0; d(CA1,N1) (MASP-2 CCP2-SP; [1]): 3.55; d(CA1,O1) (MASP-2 CCP2-SP; [1]): 4.37; d(CA1,O2) (MASP-2 CCP2-SP; [1]): 4.23; d(H4,O1) (MASP-2 CCP2-SP; [1]): 3.99; d(H4,O2) (MASP-2 CCP2-SP; [1]): 3.27; d(O1,O2) (MASP-2 CCP2-SP; [1]): 3.23; d(N2,CA2) (MASP-2 CCP2-SP; [2]): 6.19; d(O2,H3) (MASP-2 CCP2-SP; [2]): 5.45; d(O2,N2) (MASP-2 CCP2-SP; [2]): 2.78; a(CA1, O1, O2) (MASP-2 CCP2-SP; Table A6-1 pharmacophore angle): 109.78; a(O1, O2, H4) (MASP-2 CCP2-SP; Table A6-1 pharmacophore angle): 128.26; A(N1, CA1, O1) a) (MASP-2 CCP2-SP; Table A6-1 pharmacophore angle, all compounds with protonatable center N1 except Methyl-amino-pyridine): 163.32; a(O1, O2, H3) (MASP-2 CCP2-SP; Table A6-2 pharmacophore angle): 151.79; a(O1, O2, N2) (MASP-2 CCP2-SP; Table A6-2 pharmacophore angle): 136.56; a(O2, N2, CA2) (MASP-2 CCP2-SP; Table A6-2 pharmacophore angle): 154.55; Pharmacophore torsion angle a(H4, O1, O2, H3) (MASP-2 CCP2-SP; [3]): 44.69; Pharmacophore torsion angle a(H4, O1, O2, N2) (MASP-2 CCP2-SP; [3]): 125.09; Pharmacophore torsion angle a(N1, CA1, O2, H4) (MASP-2 CCP2-SP; [3]): −97.21; Pharmacophore torsion angle a(O1, H4, O2, CA1) (MASP-2 CCP2-SP; [3]): −63.40; Pharmacophore torsion angle a(O1, O2, N2, CA2) (MASP-2 CCP2-SP; Table A7-2, between pharmacophore elements of the bound compound): 139.71; Pharmacophore protein distance to MET_658 (first MET_658 column) (MASP-2 CCP2-SP; Table A8-6, 6th residue column, nearest protein atom in cell to the left): 1.94; Pharmacophore protein distance to MET_658 (second MET_658 column) (MASP-2 CCP2-SP; Table A8-6, 9th residue column, nearest protein atom in cell to the left): 3.26; Pharmacophore protein distance to GLY_528 (MASP-2 CCP2-SP; [4]): 3.60; Pharmacophore protein distance to PHE_529 (MASP-2 CCP2-SP; [4]): 3.20; Pharmacophore protein distance to PRO_608 (MASP-2 CCP2-SP; [4]): 3.95; Pharmacophore protein distance to SER_611 (MASP-2 CCP2-SP; [4]): 2.54; Pharmacophore protein distance to TRP_655 (MASP-2 CCP2-SP; Table A8-6, pharmacophore elements C6, CA3, O3, H1, nearest protein atom in cell to the left): 3.53; Ki (MASP-2 (CCP1-CCP2-SP)): < 500 nM
